What was measured:
ISC-enriched organoids [1] = assay: Primary screen, 384-well 2.5-D organoid differentiation (ENR+CD, 6 days): carbachol-induced lysozyme secretion (LYZ.S); type: cell-based, murine; settings: for Z.LYZ.S: standard z score; for Z.LYZ.S / SSMD.LYZ.S / Dose.FC.LYZ.S (log 2 fold change): primary screen; for SSMD.LYZ.S: strictly standardized mean difference; for Dose.FC.LYZ.S: ENR+CD, 6 days, FC vs plate median; for Dose.FC.LYZ.S (log 2 fold change): vs plate median
Source text: (§1) High-throughput screening.

ISC-enriched organoids [2] = assay: Primary screen, 384-well 2.5-D organoid differentiation (ENR+CD, 6 days): basal lysozyme secretion (LYZ.NS); type: cell-based, murine; settings: for SSMD.LYZ.NS: strictly standardized mean difference; for SSMD.LYZ.NS / Z.LYZ.NS (standard z score) / Dose.FC.LYZ.NS (log 2 fold change): primary screen; for Dose.FC.LYZ.NS: ENR+CD, 6 days, FC vs plate median; for Z.LYZ.NS: standard z score of FC; for Dose.FC.LYZ.NS (log 2 fold change): vs plate median
Source text: as §1

ISC-enriched organoids [3] = assay: Primary screen, 384-well 2.5-D organoid differentiation (ENR+CD, 6 days, Target Selective Inhibitor Library, vs whole-plate median): ATP (CellTiter-Glo 3D, CTG); settings: for SSMD.CTG: strictly standardized mean difference; for Dose.FC.CTG: ENR+CD, 6 days, FC vs plate median; for Dose.FC.CTG (log 2 fold change): vs plate median
[4] = 1st of the 4 dose lines of the treatment (dose not given)
[5] = 2nd of the 4 dose lines of the treatment (dose not given)
[6] = 3rd of the 4 dose lines of the treatment (dose not given)
[7] = 4th of the 4 dose lines of the treatment (dose not given)
[8] = Dose 0.08 uM, standard z score of FC
[9] = Dose 0.40 uM, standard z score of FC
[10] = Dose 2.00 uM, standard z score of FC
[11] = Dose 10.00 uM, standard z score of FC

| SMILES | Dose.FC.LYZ.S (ISC-enriched organoids [1]; Dose 0.08 uM) [log 2 fold change] | Dose.FC.LYZ.S (ISC-enriched organoids [1]; Dose 0.40 uM) [log 2 fold change] | Dose.FC.LYZ.S (ISC-enriched organoids [1]; Dose 2.00 uM) [log 2 fold change] | Dose.FC.LYZ.S (ISC-enriched organoids [1]; Dose 10.00 uM) [log 2 fold change] | Dose.FC.LYZ.NS (ISC-enriched organoids [2]; Dose 0.08 uM) [log 2 fold change] | Z.LYZ.NS (ISC-enriched organoids [2]; Dose 0.08 uM) | Dose.FC.LYZ.NS (ISC-enriched organoids [2]; Dose 0.40 uM) [log 2 fold change] | Z.LYZ.NS (ISC-enriched organoids [2]; Dose 0.40 uM) | Dose.FC.LYZ.NS (ISC-enriched organoids [2]; Dose 2.00 uM) [log 2 fold change] | Z.LYZ.NS (ISC-enriched organoids [2]; Dose 2.00 uM) | Dose.FC.LYZ.NS (ISC-enriched organoids [2]; Dose 10.00 uM) [log 2 fold change] | Z.LYZ.NS (ISC-enriched organoids [2]; Dose 10.00 uM) | Dose.FC.CTG (ISC-enriched organoids [3]; Dose 0.08 uM) [log 2 fold change] | Z.CTG (ISC-enriched organoids [3]; [8]) | Dose.FC.CTG (ISC-enriched organoids [3]; Dose 0.40 uM) [log 2 fold change] | Z.CTG (ISC-enriched organoids [3]; [9]) | Dose.FC.CTG (ISC-enriched organoids [3]; Dose 2.00 uM) [log 2 fold change] | Z.CTG (ISC-enriched organoids [3]; [10]) | Dose.FC.CTG (ISC-enriched organoids [3]; Dose 10.00 uM) [log 2 fold change] | Z.CTG (ISC-enriched organoids [3]; [11]) | also measured |
| --- | --- | --- | --- | --- | --- | --- | --- | --- | --- | --- | --- | --- | --- | --- | --- | --- | --- | --- | --- | --- | --- |
| CCN(CC)CC(=O)Nc1c(C)cccc1C [Lidocaine] |  |  |  |  |  |  |  |  |  |  |  |  |  |  |  |  |  |  |  |  | Z.LYZ.S (ISC-enriched organoids [1]; [4]): 0.537; Z.LYZ.S (ISC-enriched organoids [1]; [5]): 0.167; Z.LYZ.S (ISC-enriched organoids [1]; [6]): −0.244; Z.LYZ.S (ISC-enriched organoids [1]; [7]): −0.061; SSMD.LYZ.S (ISC-enriched organoids [1]; [4]): 0.448; SSMD.LYZ.S (ISC-enriched organoids [1]; [5]): 0.197; SSMD.LYZ.S (ISC-enriched organoids [1]; [6]): −0.268; SSMD.LYZ.S (ISC-enriched organoids [1]; [7]): −0.070; SSMD.LYZ.NS (ISC-enriched organoids [2]; [4]): 0.904; SSMD.LYZ.NS (ISC-enriched organoids [2]; [5]): 0.132; SSMD.LYZ.NS (ISC-enriched organoids [2]; [6]): 0.008; SSMD.LYZ.NS (ISC-enriched organoids [2]; [7]): 0.183; Z.CTG (ISC-enriched organoids [3]; Dose 0.08 uM, primary screen, standard z score): −0.188; Z.CTG (ISC-enriched organoids [3]; Dose 0.40 uM, primary screen, standard z score): −0.365; Z.CTG (ISC-enriched organoids [3]; Dose 2.00 uM, primary screen, standard z score): 0.081; Z.CTG (ISC-enriched organoids [3]; Dose 10.00 uM, primary screen, standard z score): −0.611; SSMD.CTG (ISC-enriched organoids [3]; primary screen, 1st of the 4 dose lines of the treatment (dose not given)): −0.237; SSMD.CTG (ISC-enriched organoids [3]; primary screen, 2nd of the 4 dose lines of the treatment (dose not given)): −0.371; SSMD.CTG (ISC-enriched organoids [3]; primary screen, 3rd of the 4 dose lines of the treatment (dose not given)): 0.116; SSMD.CTG (ISC-enriched organoids [3]; primary screen, 4th of the 4 dose lines of the treatment (dose not given)): −0.889 |
| O=C(NC(NC(=S)Nc1ccc(F)c([N+](=O)[O-])c1)C(Cl)(Cl)Cl)C(c1ccccc1)c1ccccc1 (centres unmarked) [CGK733] | 0.008 | −0.018 | −0.125 | −0.230 | 0.099 | 0.863 | −0.026 | −0.222 | −0.099 | −0.865 | −0.122 | −1.063 | −0.362 | −0.864 | −0.093 | −0.221 | −0.244 | −0.582 | −0.478 | −1.143 |  |
| O=C(Nc1cccc(Nc2ncc(Br)c(NCCc3cnc[nH]3)n2)c1)N1CCCC1 [BX-912] | 0.038 | 0.042 | −0.161 | −0.272 | 0.010 | 0.090 | 0.017 | 0.151 | −0.089 | −0.771 | −0.196 | −1.704 | 0.043 | 0.103 | 0.054 | 0.129 | −0.246 | −0.587 | −0.397 | −0.949 |  |
| Oc1ccc(Nc2nc(-c3ccc(Cl)cc3)cs2)cc1 [SKI II] |  |  |  |  |  |  |  |  |  |  |  |  |  |  |  |  |  |  |  |  | Dose.FC.LYZ.S (log 2 fold change) (ISC-enriched organoids [1]; Dose 0.08 uM): 0.090; Dose.FC.LYZ.S (log 2 fold change) (ISC-enriched organoids [1]; Dose 0.40 uM): 0.123; Dose.FC.LYZ.S (log 2 fold change) (ISC-enriched organoids [1]; Dose 2.00 uM): 0.061; Dose.FC.LYZ.S (log 2 fold change) (ISC-enriched organoids [1]; Dose 10.00 uM): −0.191; Z.LYZ.NS (standard z score) (ISC-enriched organoids [2]; Dose 0.08 uM): 0.683; Dose.FC.LYZ.NS (log 2 fold change) (ISC-enriched organoids [2]; Dose 0.08 uM): 0.078; Z.LYZ.NS (standard z score) (ISC-enriched organoids [2]; Dose 0.40 uM): 1.906; Dose.FC.LYZ.NS (log 2 fold change) (ISC-enriched organoids [2]; Dose 0.40 uM): 0.219; Z.LYZ.NS (standard z score) (ISC-enriched organoids [2]; Dose 2.00 uM): 0.647; Dose.FC.LYZ.NS (log 2 fold change) (ISC-enriched organoids [2]; Dose 2.00 uM): 0.074; Z.LYZ.NS (standard z score) (ISC-enriched organoids [2]; Dose 10.00 uM): −1.362; Dose.FC.LYZ.NS (log 2 fold change) (ISC-enriched organoids [2]; Dose 10.00 uM): −0.156; Z.CTG (standard z score) (ISC-enriched organoids [3]; Dose 0.08 uM, primary screen): 0.699; Dose.FC.CTG (log 2 fold change) (ISC-enriched organoids [3]; Dose 0.08 uM, primary screen): 0.293; Z.CTG (standard z score) (ISC-enriched organoids [3]; Dose 0.40 uM, primary screen): 0.531; Dose.FC.CTG (log 2 fold change) (ISC-enriched organoids [3]; Dose 0.40 uM, primary screen): 0.222; Z.CTG (standard z score) (ISC-enriched organoids [3]; Dose 2.00 uM, primary screen): 0.473; Dose.FC.CTG (log 2 fold change) (ISC-enriched organoids [3]; Dose 2.00 uM, primary screen): 0.198; Z.CTG (standard z score) (ISC-enriched organoids [3]; Dose 10.00 uM, primary screen): −0.802; Dose.FC.CTG (log 2 fold change) (ISC-enriched organoids [3]; Dose 10.00 uM, primary screen): −0.336 |
